Results: article PMC5161434 (EBioMedicine, 2016)

Tests used:
A2780 = experiment: CCK-8 cell viability, A2780 ovarian cancer cells; format: cell-based, human; conditions: for IC50: Homo sapiens, A2780, 48 h, read-out: IC50 (cell growth inhibition), A2780
OVCAR3 = experiment: CCK-8 cell viability, OVCAR3 ovarian cancer cells; format: cell-based, human; conditions: for IC50: Homo sapiens, OVCAR-3, 48 h, read-out: IC50 (cell growth inhibition), OVCAR-3
A2780 cells [1] = experiment: PI staining cell-cycle distribution, A2780; format: cell-based, human; conditions: 24 h
OVCAR3 cells [2] = experiment: PI staining cell-cycle distribution, OVCAR3; format: cell-based, human; conditions: 24 h
A2780 cells [3] = experiment: Western blotting of apoptosis, cell cycle and EMT proteins, A2780; format: cell-based, human; conditions: 24 h; for cleavage of caspase 3 and PARP: ARS4 1, 5, 10 μM, DHA or melphalan 10 μM
OVCAR3 cells [4] = experiment: Western blotting of apoptosis, cell cycle and EMT proteins, OVCAR3; format: cell-based, human; conditions: 24 h; for cleavage of caspase 3 and PARP: ARS4 1, 5, 10 μM, DHA or melphalan 10 μM
[5] = Host toxicity in tumor-bearing mice; format: in vivo, BALB/c nude mice; conditions: 25 mg/kg daily, end of experiment; for organ weights (liver, kidneys, spleen, lung): versus vehicle

| SMILES | IC50 (A2780) | IC50 (OVCAR3) | effect on cell-cycle progression (A2780 cells [1]) | effect on cell-cycle progression (OVCAR3 cells [2]) | EMT phenotype (E-cadherin, Vimentin, Snail, Slug expression) (A2780 cells [3]) | cleavage of caspase 3 and PARP (A2780 cells [3]) | EMT phenotype (E-cadherin, Vimentin, Snail, Slug expression) (OVCAR3 cells [4]) | cleavage of caspase 3 and PARP (OVCAR3 cells [4]) | histological findings (H&E; liver, kidneys, spleen, lung) [5] | organ weights (liver, kidneys, spleen, lung) [5] | growth of cells after 12 h of exposure (CCK8) (A2780; A2780, 12 h, data not shown) | growth of cells after 12 h of exposure (CCK8) (OVCAR3; OVCAR3, 12 h, data not shown) |
| --- | --- | --- | --- | --- | --- | --- | --- | --- | --- | --- | --- | --- |
| N[C@@H](Cc1ccc(N(CCCl)CCCl)cc1)C(=O)O [Compound 3, melphalan] | 23.2 µM | 11.6 µM | arrested cells in the S phase | arrested cells in the S phase | no obvious effect | less effect | no obvious effect | less effect | substantial necrosis of liver and spleen parenchymal cells | Severe decreases in organ weight | – | – |
| C[C@H]1[C@@H](O)O[C@@H]2O[C@@]3(C)CC[C@H]4[C@H](C)CC[C@@H]1[C@@]24OO3 [Compound 1, Dihydroartemisinin] | 4.75 µM | 5.65 µM | modest arrest in the G0/G1 phase | modest arrest in the G0/G1 phase | – | less effect | – | less effect | – | – | no apparent inhibition of growth | no apparent inhibition of growth |
| N.N.O=C([O-])C1(C(=O)[O-])CCC1.[Pt+2] [Carboplatin] | – | – | – | – | – | – | – | – | – | loss | – | – |
